We go through four compounds from patent US20250034216A1, “STEREOSELECTIVE COVALENT LIGANDS FOR ONCOGENIC AND IMMUNOLOGICAL PROTEINS” (The Scripps Research Institute, priority 2021, published 2025).

What all share (assay): IA-DTB cysteine engagement
What all share (type): binding
What all share (settings): 22Rv1 cells, 20 μM probe, 1 h, relative to DMSO

In one assay the target is T1, CRYBG1_C1574 (Homo sapiens, UniProt Q9Y4K1).
T1 construct: endogenous in cells; host or cells: 22Rv1
The method in brief: (§1)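 Read-out is TMT-based cysteine engagement, expressed as each reporter ion intensity divided by the average of the DMSO channels. Before that, probe-treated cell lysates were capped with IA-DTB, digested, enriched on streptavidin and TMT-tagged. PSMs with DMSO summed intensity <10,000 or DMSO CV >0.5 were excluded.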

For a further assay, the target named is T2, TRMT61A_C209 (Homo sapiens, UniProt Q96FX7).
T2 construct: endogenous in cells; host or cells: 22Rv1
The method in brief:
as §1

For another assay, the target named is T3, WAPL_C1133 (Homo sapiens, UniProt Q7Z5K2).
T3 construct: endogenous in cells; host or cells: 22Rv1
T3 sequence (Q7Z5K2 1-1190): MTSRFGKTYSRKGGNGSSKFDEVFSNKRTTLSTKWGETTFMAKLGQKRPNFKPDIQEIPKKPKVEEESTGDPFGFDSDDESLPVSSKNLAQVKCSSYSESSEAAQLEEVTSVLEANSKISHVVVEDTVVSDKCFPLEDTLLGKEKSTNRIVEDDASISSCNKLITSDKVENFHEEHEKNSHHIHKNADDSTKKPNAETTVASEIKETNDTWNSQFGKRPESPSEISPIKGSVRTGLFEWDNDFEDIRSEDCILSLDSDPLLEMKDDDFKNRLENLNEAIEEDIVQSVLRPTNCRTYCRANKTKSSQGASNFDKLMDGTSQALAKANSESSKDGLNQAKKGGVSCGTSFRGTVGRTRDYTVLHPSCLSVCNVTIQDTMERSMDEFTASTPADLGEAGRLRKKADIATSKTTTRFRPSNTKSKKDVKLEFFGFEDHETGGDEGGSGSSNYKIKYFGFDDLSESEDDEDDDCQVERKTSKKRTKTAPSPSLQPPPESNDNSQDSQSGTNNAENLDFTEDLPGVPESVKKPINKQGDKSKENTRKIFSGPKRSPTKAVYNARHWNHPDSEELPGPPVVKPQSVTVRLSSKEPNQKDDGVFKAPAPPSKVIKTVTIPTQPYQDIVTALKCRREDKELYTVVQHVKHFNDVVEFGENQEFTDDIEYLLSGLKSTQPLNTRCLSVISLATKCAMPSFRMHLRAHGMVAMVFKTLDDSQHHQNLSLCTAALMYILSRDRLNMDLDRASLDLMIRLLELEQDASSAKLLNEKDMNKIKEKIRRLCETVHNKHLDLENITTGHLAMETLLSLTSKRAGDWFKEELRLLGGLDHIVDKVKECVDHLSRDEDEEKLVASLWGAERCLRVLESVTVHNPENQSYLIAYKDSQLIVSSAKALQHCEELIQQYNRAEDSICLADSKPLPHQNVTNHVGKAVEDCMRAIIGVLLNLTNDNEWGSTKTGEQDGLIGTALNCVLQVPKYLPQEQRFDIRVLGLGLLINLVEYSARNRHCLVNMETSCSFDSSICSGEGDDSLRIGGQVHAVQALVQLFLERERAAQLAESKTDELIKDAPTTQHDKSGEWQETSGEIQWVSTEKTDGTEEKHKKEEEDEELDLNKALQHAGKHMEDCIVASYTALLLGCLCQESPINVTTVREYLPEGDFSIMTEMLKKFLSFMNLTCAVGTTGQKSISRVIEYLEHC
The method in brief: as §1

T2 sequence (Q96FX7 whole entry): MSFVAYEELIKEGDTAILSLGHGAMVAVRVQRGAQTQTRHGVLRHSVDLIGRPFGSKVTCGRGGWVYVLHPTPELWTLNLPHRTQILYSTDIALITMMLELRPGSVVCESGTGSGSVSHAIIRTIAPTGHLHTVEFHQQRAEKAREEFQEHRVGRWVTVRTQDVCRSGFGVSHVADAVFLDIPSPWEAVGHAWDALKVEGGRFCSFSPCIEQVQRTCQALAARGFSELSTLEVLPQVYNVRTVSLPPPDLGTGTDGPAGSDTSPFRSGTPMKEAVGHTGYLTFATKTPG
T1 sequence (Q9Y4K1 whole entry): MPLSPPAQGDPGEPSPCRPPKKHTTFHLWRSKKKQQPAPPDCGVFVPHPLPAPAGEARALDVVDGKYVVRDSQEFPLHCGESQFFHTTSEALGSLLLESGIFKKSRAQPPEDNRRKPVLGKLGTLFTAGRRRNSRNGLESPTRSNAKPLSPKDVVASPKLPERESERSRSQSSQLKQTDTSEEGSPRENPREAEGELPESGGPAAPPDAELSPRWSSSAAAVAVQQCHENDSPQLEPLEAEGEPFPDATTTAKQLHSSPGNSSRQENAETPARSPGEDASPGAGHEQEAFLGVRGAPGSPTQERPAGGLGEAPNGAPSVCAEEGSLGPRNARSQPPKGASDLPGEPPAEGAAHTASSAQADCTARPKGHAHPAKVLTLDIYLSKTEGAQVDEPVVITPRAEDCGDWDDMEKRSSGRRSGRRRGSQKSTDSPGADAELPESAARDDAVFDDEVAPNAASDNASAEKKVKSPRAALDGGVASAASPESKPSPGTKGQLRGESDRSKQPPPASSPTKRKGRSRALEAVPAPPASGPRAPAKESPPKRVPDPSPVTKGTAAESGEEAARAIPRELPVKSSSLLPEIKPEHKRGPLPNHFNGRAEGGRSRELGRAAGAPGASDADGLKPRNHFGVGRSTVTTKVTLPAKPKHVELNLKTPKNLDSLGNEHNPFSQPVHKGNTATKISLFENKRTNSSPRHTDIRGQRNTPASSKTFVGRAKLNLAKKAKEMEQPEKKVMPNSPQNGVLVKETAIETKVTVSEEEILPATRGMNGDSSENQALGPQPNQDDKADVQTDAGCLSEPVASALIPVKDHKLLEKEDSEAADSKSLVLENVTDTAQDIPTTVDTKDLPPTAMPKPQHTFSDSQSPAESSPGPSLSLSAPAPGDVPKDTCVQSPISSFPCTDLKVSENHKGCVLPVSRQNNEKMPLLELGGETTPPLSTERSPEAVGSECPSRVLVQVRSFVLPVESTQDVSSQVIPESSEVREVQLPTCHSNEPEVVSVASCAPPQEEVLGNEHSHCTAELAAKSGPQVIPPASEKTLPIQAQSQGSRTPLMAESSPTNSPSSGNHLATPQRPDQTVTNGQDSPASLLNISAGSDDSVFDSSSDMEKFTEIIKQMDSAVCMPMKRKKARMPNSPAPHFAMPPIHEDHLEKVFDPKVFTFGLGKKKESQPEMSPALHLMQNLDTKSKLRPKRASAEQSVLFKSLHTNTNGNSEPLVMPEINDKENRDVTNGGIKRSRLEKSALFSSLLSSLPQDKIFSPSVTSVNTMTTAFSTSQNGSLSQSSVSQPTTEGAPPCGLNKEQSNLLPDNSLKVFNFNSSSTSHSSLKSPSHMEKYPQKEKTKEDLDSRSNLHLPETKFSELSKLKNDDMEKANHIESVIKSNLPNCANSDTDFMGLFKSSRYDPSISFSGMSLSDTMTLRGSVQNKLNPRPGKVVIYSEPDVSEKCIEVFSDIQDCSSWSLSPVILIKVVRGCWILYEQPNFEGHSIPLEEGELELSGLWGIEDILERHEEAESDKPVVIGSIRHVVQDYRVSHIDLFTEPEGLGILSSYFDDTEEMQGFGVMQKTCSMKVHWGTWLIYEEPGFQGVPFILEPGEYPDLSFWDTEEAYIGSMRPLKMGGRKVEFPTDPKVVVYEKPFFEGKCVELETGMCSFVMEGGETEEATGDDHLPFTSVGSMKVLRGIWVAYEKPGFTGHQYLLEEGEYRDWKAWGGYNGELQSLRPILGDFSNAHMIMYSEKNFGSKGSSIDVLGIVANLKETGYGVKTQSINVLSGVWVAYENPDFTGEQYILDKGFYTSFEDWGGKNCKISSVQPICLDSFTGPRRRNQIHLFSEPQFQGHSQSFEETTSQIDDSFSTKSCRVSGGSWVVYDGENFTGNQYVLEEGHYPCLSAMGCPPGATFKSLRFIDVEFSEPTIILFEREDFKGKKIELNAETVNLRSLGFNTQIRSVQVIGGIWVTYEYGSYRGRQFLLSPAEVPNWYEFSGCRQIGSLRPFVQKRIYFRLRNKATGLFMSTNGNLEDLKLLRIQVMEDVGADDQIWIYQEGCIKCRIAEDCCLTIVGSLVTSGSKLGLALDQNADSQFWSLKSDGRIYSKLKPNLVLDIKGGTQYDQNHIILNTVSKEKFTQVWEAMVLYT

As to `C=CC(=O)N1C[C@@H](c2ccc(Br)cc2)[C@H]1C(=O)Nc1cccc2cccnc12` [MY-1A, (2S,3R)-1-acryloyl-3-(4-bromophenyl)-N-(quinolin-8-yl)azetidine-2-carboxamide], the “% engagement CRYBG1_C1574” value at CRYBG1_C1574 is 23%. At TRMT61A_C209, the “% engagement TRMT61A_C209” value was 40.75%. The “% engagement WAPL_C1133” value at WAPL_C1133 is reported as 18%.

Take `C=CC(=O)N1C[C@H](c2ccc(Br)cc2)[C@@H]1C(=O)Nc1cccc2cccnc12` [MY-1B, (2R,3S)-1-acryloyl-3-(4-bromophenyl)-N-(quinolin-8-yl)azetidine-2-carboxamide]: on CRYBG1_C1574, the “% engagement CRYBG1_C1574” value is listed as 72%. The “% engagement TRMT61A_C209” value on TRMT61A_C209 was determined as 67%. For the same compound, the “% engagement WAPL_C1133” value on WAPL_C1133 is given as 34%.

On to `C=CC(=O)N1C[C@H](c2ccc(Br)cc2)[C@H]1C(=O)Nc1cccc2cccnc12` [MY-3A, (2S,3S)-1-acryloyl-3-(4-bromophenyl)-N-(quinolin-8-yl)azetidine-2-carboxamide], for which the “% engagement CRYBG1_C1574” value on CRYBG1_C1574 came out at 28.5%. Further, the “% engagement TRMT61A_C209” value at TRMT61A_C209 came to 18.75%. The “% engagement WAPL_C1133” value on WAPL_C1133 is on record as 78.5%.

`C=CC(=O)N1C[C@H](c2ccc(Br)cc2)[C@H]1C(=O)Nc1cccc2cccnc12` [MY-3B, (2S,3S)-1-acryloyl-3-(4-bromophenyl)-N-(quinolin-8-yl)azetidine-2-carboxamide]: the “% engagement CRYBG1_C1574” value at CRYBG1_C1574 came out at 13.5%. Besides, the “% engagement TRMT61A_C209” value at TRMT61A_C209 is recorded as 56%. For the same compound, the “% engagement WAPL_C1133” value on WAPL_C1133 amounted to 46%.
